# Data from ChEMBL document CHEMBL5338795, “Novel Triazoles with Potent and Broad-Spectrum Antifungal Activity In Vitro and In Vivo” (J Med Chem, 2023).
# What was measured:
# Format in all cases: functional
# Candida albicans [1] = experiment: Antifungal activity against Candida albicans SC5314 assessed as reduction in fungal growth incubated for 24 hrs by CLSI based microdilution analysis
# [2] = system: Meyerozyma guilliermondii; experiment: Antifungal activity against Meyerozyma guilliermondii ATCC 6260 assessed as reduction in fungal growth incubated for 24 hrs by CLSI based microdilution analysis
# Candida albicans [3] = experiment: Antifungal activity against fluconazole-resistant Candida albicans 901 assessed as inhibition of fungal growth measured for 24 hrs by CLSI based microdilution analysis
# Candida albicans [4] = experiment: Antifungal activity against fluconazole-resistant Candida albicans 13 assessed as inhibition of fungal growth measured for 24 hrs by CLSI based microdilution analysis
# Aspergillus fumigatus = experiment: Antifungal activity against Aspergillus fumigatus CGMCC3 7795 assessed as reduction in fungal growth incubated for 48 hrs by CLSI based microdilution analysis
# Nakaseomyces glabratus = experiment: Antifungal activity against Candida glabrata ATCC 15126 assessed as reduction in fungal growth incubated for 24 hrs by CLSI based microdilution analysis
# Candida albicans [5] = experiment: Antifungal activity against fluconazole-resistant Candida albicans 112869 assessed as inhibition of fungal growth measured for 24 hrs by CLSI based microdilution analysis
# Candida albicans [6] = experiment: Antifungal activity against fluconazole-resistant Candida albicans 102 assessed as inhibition of fungal growth measured for 24 hrs by CLSI based microdilution analysis
# Candida parapsilosis = experiment: Antifungal activity against Candida parapsilosis ATCC 22019 assessed as reduction in fungal growth incubated for 24 hrs by CLSI based microdilution analysis; conditions: Lodderomyces parapsilosis
# Candida tropicalis = experiment: Antifungal activity against Candida tropicalis ATCC 750 assessed as reduction in fungal growth incubated for 24 hrs by CLSI based microdilution analysis
# Cryptococcus neoformans = experiment: Antifungal activity against Cryptococcus neoformans CGMCC3 1563 assessed as reduction in fungal growth incubated for 72 hrs by CLSI based microdilution analysis
# Candida albicans [7] = experiment: Antifungal activity against fluconazole-resistant Candida albicans 15 assessed as inhibition of fungal growth measured for 24 hrs by CLSI based microdilution analysis
# Candida albicans [8] = experiment: Antifungal activity against fluconazole-resistant Candida albicans 24D assessed as inhibition of fungal growth measured for 24 hrs by CLSI based microdilution analysis
structure (smiles),measurement,setting,value
OC(CN1CCN(CCCCCCCCCCn2ccc3cc(Br)ccc32)CC1)(Cn1cncn1)c1ccc(F)cc1F (stereo not given),MIC80,Candida albicans [1],0.25 µg/mL
O=c1ccc2ccc(OCCN3CCN(CC(O)(Cn4cncn4)c4ccc(F)cc4F)CC3)cc2o1 (stereo not given),MIC80,Candida albicans [1],0.25 µg/mL
Cc1ccc2c(ccn2CCCN2CCN(CC(O)(Cn3cncn3)c3ccc(F)cc3F)CC2)c1 (stereo not given),MIC80,Candida albicans [1],0.062 µg/mL
same,MIC80,[2],0.125 µg/mL
same,MIC80,Candida albicans [3],5 µg/mL
same,MIC80,Candida albicans [4],0.062 µg/mL
same,MIC80,Aspergillus fumigatus,5 µg/mL
same,MIC80,Nakaseomyces glabratus,0.625 µg/mL
same,MIC80,Candida albicans [5],0.25 µg/mL
same,MIC80,Candida albicans [6],0.062 µg/mL
same,MIC80,Candida parapsilosis,0.125 µg/mL
same,MIC80,Candida tropicalis,0.625 µg/mL
same,MIC80,Cryptococcus neoformans,0.062 µg/mL
same,MIC80,Candida albicans [7],2.5 µg/mL
same,MIC80,Candida albicans [8],0.125 µg/mL
OC(CN1CCN(CCn2ncc3ccccc32)CC1)(Cn1cncn1)c1ccc(F)cc1F (stereo not given),MIC80,Candida albicans [1],0.062 µg/mL
Cc1ccc2oc(=O)c(C(=O)N3CCN(CC(O)(Cn4cncn4)c4ccc(F)cc4F)CC3)cc2c1 (stereo not given),MIC80,Candida albicans [1],0.125 µg/mL
Cc1ccc2c(c1)C(=O)C(=O)N2CCN1CCN(CC(O)(Cn2cncn2)c2ccc(F)cc2F)CC1 (stereo not given),MIC80,Candida albicans [1],0.125 µg/mL
OC(CN1CCN(CCCn2ccc3ccccc32)CC1)(Cn1cncn1)c1ccc(F)cc1F (stereo not given),MIC80,Candida albicans [1],0.062 µg/mL
same,MIC80,[2],0.125 µg/mL
same,MIC80,Candida albicans [3],5 µg/mL
same,MIC80,Candida albicans [4],0.062 µg/mL
same,MIC80,Aspergillus fumigatus,10 µg/mL
same,MIC80,Nakaseomyces glabratus,0.625 µg/mL
same,MIC80,Candida albicans [5],0.062 µg/mL
same,MIC80,Candida albicans [6],0.062 µg/mL
same,MIC80,Candida parapsilosis,0.125 µg/mL
same,MIC80,Candida tropicalis,0.625 µg/mL
same,MIC80,Cryptococcus neoformans,0.062 µg/mL
same,MIC80,Candida albicans [7],2.5 µg/mL
same,MIC80,Candida albicans [8],0.125 µg/mL
O[C@@](CN1CCN(CCn2ncc3ccccc32)CC1)(Cn1cncn1)c1ccc(F)cc1F,MIC80,Candida albicans [1],0.031 µg/mL
Cc1ccc(S(=O)(=O)N2CCN(CC(O)(Cn3cncn3)c3ccc(F)cc3F)CC2)cc1 (stereo not given),MIC80,Candida albicans [1],0.125 µg/mL
OC(CN1CCN(CCn2ncc3cc(Br)ccc32)CC1)(Cn1cncn1)c1ccc(F)cc1F (stereo not given),MIC80,Candida albicans [1],0.062 µg/mL
OC(CN1CCN(CCCn2ccc3cc(Cl)ccc32)CC1)(Cn1cncn1)c1ccc(F)cc1F (stereo not given),MIC80,Candida albicans [1],0.031 µg/mL
same,MIC80,[2],0.125 µg/mL
same,MIC80,Candida albicans [3],2.5 µg/mL
same,MIC80,Candida albicans [4],0.062 µg/mL
same,MIC80,Aspergillus fumigatus,5 µg/mL
same,MIC80,Nakaseomyces glabratus,0.312 µg/mL
same,MIC80,Candida albicans [5],0.062 µg/mL
same,MIC80,Candida albicans [6],0.062 µg/mL
same,MIC80,Candida parapsilosis,0.062 µg/mL
same,MIC80,Candida tropicalis,0.625 µg/mL
same,MIC80,Cryptococcus neoformans,0.031 µg/mL
same,MIC80,Candida albicans [7],2.5 µg/mL
same,MIC80,Candida albicans [8],0.062 µg/mL
O=C(c1cc2ccccc2oc1=O)N1CCN(CC(O)(Cn2cncn2)c2ccc(F)cc2F)CC1 (stereo not given),MIC80,Candida albicans [1],0.062 µg/mL
O[C@](CN1CCN(CCn2ccc3cc(Br)ccc32)CC1)(Cn1cncn1)c1ccc(F)cc1F,MIC80,Candida albicans [1],25 µg/mL
OC(CN1CCN(CCCCCCCCCn2ccc3cc(Br)ccc32)CC1)(Cn1cncn1)c1ccc(F)cc1F (stereo not given),MIC80,Candida albicans [1],0.25 µg/mL
OC(CN1CCN(CCn2ncc3cc(I)ccc32)CC1)(Cn1cncn1)c1ccc(F)cc1F (stereo not given),MIC80,Candida albicans [1],0.062 µg/mL
OC(CN1CCN(CCCCCCn2ccc3ccc(F)cc32)CC1)(Cn1cncn1)c1ccc(F)cc1F (stereo not given),MIC80,Candida albicans [1],0.125 µg/mL
OC(CN1CCN(CCn2ccc3ccccc32)CC1)(Cn1cncn1)c1ccc(F)cc1F (stereo not given),MIC80,Candida albicans [1],0.031 µg/mL
O=C(c1ccc2ccccc2c1)N1CCN(CC(O)(Cn2cncn2)c2ccc(F)cc2F)CC1 (stereo not given),MIC80,Candida albicans [1],0.062 µg/mL
OC(CN1CCN(CCCCCn2ccc3cc(Br)ccc32)CC1)(Cn1cncn1)c1ccc(F)cc1F (stereo not given),MIC80,Candida albicans [1],0.125 µg/mL
OC(CN1CCN(CCCCn2ccc3cc(Br)ccc32)CC1)(Cn1cncn1)c1ccc(F)cc1F (stereo not given),MIC80,Candida albicans [1],0.062 µg/mL
same,MIC80,[2],0.125 µg/mL
same,MIC80,Candida albicans [3],2.5 µg/mL
same,MIC80,Candida albicans [4],0.062 µg/mL
same,MIC80,Aspergillus fumigatus,1.25 µg/mL
same,MIC80,Nakaseomyces glabratus,0.312 µg/mL
same,MIC80,Candida albicans [5],0.25 µg/mL
same,MIC80,Candida albicans [6],0.062 µg/mL
same,MIC80,Candida parapsilosis,0.062 µg/mL
same,MIC80,Candida tropicalis,0.312 µg/mL
same,MIC80,Cryptococcus neoformans,0.031 µg/mL
same,MIC80,Candida albicans [7],1.25 µg/mL
same,MIC80,Candida albicans [8],0.125 µg/mL
OC(CN1CCN(CCn2ccc3cc(Cl)c(Cl)cc32)CC1)(Cn1cncn1)c1ccc(F)cc1F (stereo not given),MIC80,Candida albicans [1],0.031 µg/mL
same,MIC80,[2],0.125 µg/mL
same,MIC80,Candida albicans [3],2.5 µg/mL
same,MIC80,Candida albicans [4],0.062 µg/mL
same,MIC80,Aspergillus fumigatus,5 µg/mL
same,MIC80,Nakaseomyces glabratus,0.312 µg/mL
same,MIC80,Candida albicans [5],0.25 µg/mL
same,MIC80,Candida albicans [6],0.062 µg/mL
same,MIC80,Candida parapsilosis,0.125 µg/mL
same,MIC80,Candida tropicalis,0.312 µg/mL
same,MIC80,Cryptococcus neoformans,0.062 µg/mL
same,MIC80,Candida albicans [7],0.625 µg/mL
same,MIC80,Candida albicans [8],0.062 µg/mL
O=C1C(=O)N(CCN2CCN(CC(O)(Cn3cncn3)c3ccc(F)cc3F)CC2)c2ccc(Br)cc21 (stereo not given),MIC80,Candida albicans [1],0.062 µg/mL
OC(CN1CCN(CCCCCCCCCn2ccc3cc(Cl)ccc32)CC1)(Cn1cncn1)c1ccc(F)cc1F (stereo not given),MIC80,Candida albicans [1],0.25 µg/mL
OC(CN1CCN(CCn2c3ccccc3c3cc(Cl)ccc32)CC1)(Cn1cncn1)c1ccc(F)cc1F (stereo not given),MIC80,Candida albicans [1],0.25 µg/mL
O[C@](CN1CCN(CCn2ncc3ccccc32)CC1)(Cn1cncn1)c1ccc(F)cc1F,MIC80,Candida albicans [1],50 µg/mL
CN1CCN(CC(O)(Cn2cncn2)c2ccc(F)cc2F)CC1 (stereo not given),MIC80,Candida albicans [1],25 µg/mL
CCC(C)n1ncn(-c2ccc(N3CCN(c4ccc(OCC5COC(Cn6cncn6)(c6ccc(Cl)cc6Cl)O5)cc4)CC3)cc2)c1=O (stereo not given) [ITRACONAZOLE],MIC80,Candida albicans [1],0.062 µg/mL
same,MIC80,[2],0.25 µg/mL
same,MIC80,Candida albicans [3],> 100 µg/mL
same,MIC80,Candida albicans [4],> 100 µg/mL
same,MIC80,Aspergillus fumigatus,0.312 µg/mL
same,MIC80,Nakaseomyces glabratus,0.625 µg/mL
same,MIC80,Candida albicans [5],> 100 µg/mL
same,MIC80,Candida albicans [6],> 100 µg/mL
same,MIC80,Candida parapsilosis,0.25 µg/mL
same,MIC80,Candida tropicalis,0.625 µg/mL
same,MIC80,Cryptococcus neoformans,0.062 µg/mL
same,MIC80,Candida albicans [7],> 100 µg/mL
same,MIC80,Candida albicans [8],> 100 µg/mL
OC(CN1CCN(CCn2c3ccccc3c3cc(Br)ccc32)CC1)(Cn1cncn1)c1ccc(F)cc1F (stereo not given),MIC80,Candida albicans [1],0.25 µg/mL
